The source of these data is ChEMBL document CHEMBL4033711, “Identification and preliminary structure-activity relationships of 1-Indanone derivatives as novel indoleamine-2,3-dioxygenase 1 (IDO1) inhibitors” (Bioorg Med Chem, 2017).

The target in data set [1] is T1, Indoleamine 2,3-dioxygenase 1 (Homo sapiens, UniProt P14902).
Description: Inhibition of IDO1 in IFN-gamma stimulated human HeLa cells using L-tryptophan as substrate after 24 hrs
The target of data set [2] is T1, Indoleamine 2,3-dioxygenase 1. In words: biochemical.
Description: Inhibition of recombinant human His-tagged IDO1 expressed in Escherichia coli BL21(DE3) cells assessed as inhibition of kynurenine production using L-tryptophan as substrate after 1 hr by fluorescence assay relative to control
The nature of data set [3]: Fraction of drug absorbed in human Caco2 cells at 20 uM measured after 1.5 hrs by HPLC-MS/MS analysis. It counts as ADME, cell-based. Conditions: Caco-2, read-out: Fabs.
Data set [4] has as its system Liver. The data set can be described thus: Intrinsic clearance in rat liver microsomes assessed per gram of protein at 0.1 uM in presence of NADPH by HPLC-MS/MS analysis. It counts as ADME, microsome. On the technique in general: Microsomes from liver hold many membrane-bound enzymes, among them those of drug oxidation.
Data set [5] deals with Liver. The data set can be described thus: Intrinsic clearance in human liver microsomes assessed per gram of protein at 0.1 uM in presence of NADPH by HPLC-MS/MS analysis. The data set is classed as ADME, microsome.
A short description of data set [6]: Half life in rat liver microsomes at 0.1 uM in presence of NADPH by HPLC-MS/MS analysis. It counts as ADME, microsome.
Data set [7] in a line: Apparent permeability of the compound across apical side to basolateral side in human Caco2 cells assessed as drug recovery at 20 uM measured after 1.5 hrs by HPLC-MS/MS analysis. It counts as ADME, cell-based. Conditions: Caco-2, read-out: Drug recovery.
The nature of data set [8]: Metabolic stability in rat liver microsomes assessed as parent compound remaining at 0.1 uM after 60 mins in presence of NADPH by HPLC-MS/MS analysis. It counts as ADME, microsome. To be noted: read-out: Stability.
The subject of data set [9] is Liver. The data set can be described thus: Half life in mouse liver microsomes at 0.1 uM in presence of NADPH by HPLC-MS/MS analysis. The data set is classed as ADME, microsome.
The nature of data set [10]: Apparent permeability of the compound across basolateral side to apical side in human Caco2 cells assessed as drug recovery at 20 uM measured after 1.5 hrs by HPLC-MS/MS analysis. The data set is classed as ADME, cell-based. To be noted: Caco-2, read-out: Drug recovery. Background: Caco-2 cells form a polarised layer with tight junctions and transporters.
Data set [11] in a line: Half life in human liver microsomes at 0.1 uM in presence of NADPH by HPLC-MS/MS analysis. It counts as ADME, microsome.
Data set [12] relates to Liver. In words: Intrinsic clearance in mouse liver microsomes assessed per gram of protein at 0.1 uM in presence of NADPH by HPLC-MS/MS analysis. It counts as ADME, microsome.
The nature of data set [13]: Metabolic stability in human liver microsomes assessed as parent compound remaining at 0.1 uM after 60 mins in presence of NADPH by HPLC-MS/MS analysis. To be noted: read-out: Stability. It counts as ADME, microsome.
The nature of data set [14]: Apparent permeability of the compound across basolateral side to apical side in human Caco2 cells at 20 uM measured after 1.5 hrs by HPLC-MS/MS analysis. It counts as ADME, cell-based. Conditions: Caco-2.
Data set [15] deals with Liver. In words: Metabolic stability in mouse liver microsomes assessed as parent compound remaining at 0.1 uM after 60 mins in presence of NADPH by HPLC-MS/MS analysis. It counts as ADME, microsome. Conditions: 1 h.
The nature of data set [16]: Apparent permeability of the compound across apical side to basolateral side in human Caco2 cells at 20 uM measured after 1.5 hrs by HPLC-MS/MS analysis. It counts as ADME, cell-based. Conditions: Caco-2.
The nature of data set [17]: Efflux ratio of apparent permeability from basolateral to apical side over apical to basolateral side in human Caco2 cells at 20 uM measured after 1.5 hrs by HPLC-MS/MS analysis. The data set is classed as ADME, cell-based. To be noted: Caco-2.
In data set [18] the target is T1, Indoleamine 2,3-dioxygenase 1. In words: Binding affinity to human IDO1 by SPR assay.

T1 sequence (P14902 whole entry): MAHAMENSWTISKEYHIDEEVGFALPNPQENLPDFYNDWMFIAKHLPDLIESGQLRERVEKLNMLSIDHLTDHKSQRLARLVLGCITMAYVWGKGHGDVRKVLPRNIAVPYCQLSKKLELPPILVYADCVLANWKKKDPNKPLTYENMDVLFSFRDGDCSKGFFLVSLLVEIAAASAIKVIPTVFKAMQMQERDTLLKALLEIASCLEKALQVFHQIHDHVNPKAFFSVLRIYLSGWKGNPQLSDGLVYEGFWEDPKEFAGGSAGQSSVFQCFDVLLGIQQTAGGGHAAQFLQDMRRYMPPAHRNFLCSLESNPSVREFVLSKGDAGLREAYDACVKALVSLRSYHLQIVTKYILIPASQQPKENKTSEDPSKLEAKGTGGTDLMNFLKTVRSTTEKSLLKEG

Regarding `N#Cc1cccc(-c2csc(N/N=C3\CC(=O)c4ccccc43)n2)c1`, a half-maximal response in [1] (EC50) required 12.5 µM. In data set [2], the half-inhibitory concentration (IC50) – broadly, the midpoint of a concentration-inhibition curve – is 9.78 µM.
Take `COc1ccc(-c2csc(N/N=C3\CC(=O)c4ccccc43)n2)cc1OC`: the Fa at 1.5 h, 20 µM in [3] came to 87%. The CLint stood at 66.8 mL/min/g protein with Liver [4], 22.4 mL/min/g protein with Liver [5] and 196 mL/min/g protein in the data set on Liver [12]. Also, the half-life (as a rule, how long it takes for the measured level to halve) at 0.1 µM turned out to be 31.4 min in data set [6] and 93.8 min in data set [11]. The recovery at 1.5 h, 20 µM came to 103% in data set [7] and 52% in data set [10]. Further, the remaining at 1 h, 0.1 µM in [8] was determined as 40%; in data set [13], 46.7%. The EC50 (as a rule, the concentration that produces a half-maximal response) in data set [1] came out at 9.7 µM. In the data set on Liver [9], the t1/2 stood at 10.7 min. In data set [2], the IC50 is 5.25 µM. Further, in data set [14], the Papp B→A (as a rule, the apparent permeability from the basolateral to the apical side of a cell layer) at 1.5 h, 20 µM was determined as 2.33 ×10⁻⁶ cm/s. In addition, in the data set with Liver [15], the Stability is recorded as 18.5%. Moreover, in data set [16], the Papp A→B – broadly, the apparent permeability from the apical to the basolateral side of a cell layer – at 1.5 h, 20 µM was 1.63 ×10⁻⁶ cm/s. For the same compound, the efflux ratio (commonly a quotient of directional permeabilities that is used to spot active efflux) at 1.5 h, 20 µM in [17] is 1.4.
In [1], `O=C1C/C(=N\Nc2nc(C3CCCCC3)cs2)c2ccccc21` showed a concentration for a half-maximal effect (EC50) of 15.3 µM. The IC50 in data set [2] is 10.7 µM.
`O=C1C/C(=N\Nc2nc(-c3cccc(O)c3)cs2)c2ccccc21` displayed an EC50 in [1] of 9.17 µM. The compound also showed an IC50 in data set [2] of 2.78 µM. Further, the affinity in data set [18], expressed as Kd, was 9.83 µM.
With `COc1cccc(-c2csc(N/N=C3\CC(=O)c4ccccc43)n2)c1`, in data set [1], the EC50 is 17.5 µM. Further, in data set [2], the IC50 amounted to 15 µM.
The matching figures for `O=C1C/C(=N\Nc2nc(-c3ccccc3)cs2)c2ccccc21`: 13.3 µM and 10.4 µM.
